Test results published in patent publication US8759535B2, “Substituted fused imidazole derivatives, pharmaceutical compositions, and methods of use thereof” (High Point Pharmaceuticals, LLC, priority 2010, dated 2014).
Counter-ions that a name gives are not always drawn.

Tested on: HMOX1
Assay: HMOX1 Protein Assay (immunostaining of HO-1 in NHLF cells, GE InCell 1000)
Format: cell-based
Conditions: Homo sapiens, fold change above DMSO treated cells, 16 h; for fold induction at 5 µM: 5 μM compound; for fold induction at 3 µM: 3 μM compound (asterisk)
Summary of the method: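 Fold induction of HO-1 over vehicle, normally at 5 μM compound (asterisk marks 3 μM), in 0.8% DMSO medium. Normal human lung fibroblasts were treated 16 h, then paraformaldehyde-fixed, anti-HO-1/Alexa 488 stained with Hoechst, and read by high-content imaging.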

| Compound | fold induction at 5 µM | fold induction at 3 µM |
| --- | --- | --- |
| C[C@H](O)C(=O)NCCNC(=O)c1ccc2c(c1)nc(Nc1nc3ccc(OC(F)(F)F)cc3s1)n2C [Example 326, 1-Methyl-2-(6-trifluoromethoxy-benzothiazol-2-ylamino)-1H-benzoimidazole-5-carboxylic acid [2-((S)-2-hydroxy-propionylamino)-ethyl]-amide] | 34.3 | – |
| Cn1c(Nc2nc3ccc(OC(F)(F)F)cc3s2)nc2cc(C(=O)NCCn3ccnc3)ccc21 [Example 327, 1-Methyl-2-(6-trifluoromethoxy-benzothiazol-2-ylamino)-1H-benzoimidazole-5-carboxylic acid (2-imidazol-1-yl-ethyl)-amide] | 31.9 | – |
| Cn1c(Nc2nc3ccc(OC(F)(F)F)cc3s2)nc2cc(C(=O)NCCn3cccn3)ccc21 [Example 328, 1-Methyl-2-(6-trifluoromethoxy-benzothiazol-2-ylamino)-1H-benzoimidazole-5-carboxylic acid (2-pyrazol-1-yl-ethyl)-amide] | 29.4 | – |
| Cn1c(Nc2nc3ccc(OC(F)(F)F)cc3s2)nc2cc(C(=O)NCCN3CCCC3=O)ccc21 [Example 329, 1-Methyl-2-(6-trifluoromethoxy-benzothiazol-2-ylamino)-1H-benzoimidazole-5-carboxylic acid [2-(2-oxo-pyrrolidin-1-yl)-ethyl]-amide] | 52.2 | – |
| Cn1c(Nc2nc3ccc(OC(F)(F)F)cc3s2)nc2cc(C(=O)NCCN3CCNC3=O)ccc21 [Example 330, 1-Methyl-2-(6-trifluoromethoxy-benzothiazol-2-ylamino)-1H-benzoimidazole-5-carboxylic acid [2-(2-oxo-imidazolidin-1-yl)-ethyl]-amide] | 37.7 | – |
| Cn1c(Nc2nc3ccc(Cl)cc3s2)nc2cc(C(=O)NCCN3CCNC(=O)C3)ccc21 [Example 331, 2-(6-Chloro-benzothiazol-2-ylamino)-1-methyl-1H-benzoimidazole-5-carboxylic acid [2-(3-oxo-piperazin-1-yl)-ethyl]-amide] | 70.1 | – |
| COCCn1c(Nc2nc3ccc(Cl)cc3s2)nc2cc(C(=O)NCCN3CCNC(=O)C3)ccc21 [Example 332, 2-(6-Chloro-benzothiazol-2-ylamino)-1-(2-methoxy-ethyl)-1H-benzoimidazole-5-carboxylic acid [2-(3-oxo-piperazin-1-yl)-ethyl]-amide] | 55.9 | – |
| Cn1c(Nc2nc3ccc(OC(F)(F)F)cc3s2)nc2cc(C(=O)NCCN3CCCCC3)ccc21 [Example 333, 1-Methyl-2-(6-trifluoromethoxy-benzothiazol-2-ylamino)-1H-benzoimidazole-5-carboxylic acid (2-piperidin-1-yl-ethyl)-amide] | 14.5 | – |
| Cn1c(Nc2nc3ccc(Cl)cc3s2)nc2cc(C(=O)NCCN3CCCCC3)ccc21 [Example 334, 2-(6-Chloro-benzothiazol-2-ylamino)-1-methyl-1H-benzoimidazole-5-carboxylic acid (2-piperidin-1-yl-ethyl)-amide] | – | 13.4 |
| Cn1c(Nc2nc3ccc(Cl)cc3s2)nc2cc(C(=O)NCCN3CCC(F)(F)CC3)ccc21 [Example 335, 2-(6-Chloro-benzothiazol-2-ylamino)-1-methyl-1H-benzoimidazole-5-carboxylic acid [2-(4,4-difluoro-piperidin-1-yl)-ethyl]-amide] | 18.9 | – |
| Cn1c(Nc2nc3ccc(Cl)cc3s2)nc2cc(C(=O)NCCN3CCCC(F)(F)C3)ccc21 [Example 336, 2-(6-Chloro-benzothiazol-2-ylamino)-1-methyl-1H-benzoimidazole-5-carboxylic acid [2-(3,3-difluoro-piperidin-1-yl)-ethyl]-amide] | 16.1 | – |
| CN1CCN(CCNC(=O)c2ccc3c(c2)nc(Nc2nc4ccc(OC(F)(F)F)cc4s2)n3C)CC1 [Example 337, 1-Methyl-2-(6-trifluoromethoxy-benzothiazol-2-ylamino)-1H-benzoimidazole-5-carboxylic acid [2-(4-methyl-piperazin-1-yl)-ethyl]-amide] | – | 12.7 |
| CN1CCN(CCNC(=O)c2ccc3c(c2)nc(Nc2nc4ccc(Cl)cc4s2)n3C)CC1 [Example 338, 2-(6-Chloro-benzothiazol-2-ylamino)-1-methyl-1H-benzoimidazole-5-carboxylic acid [2-(4-methyl-piperazin-1-yl)-ethyl]-amide] | – | 13.6 |
| Cn1c(Nc2nc3ccc(Cl)cc3s2)nc2cc(C(=O)NCCN3CCNCC3)ccc21 [Example 339, 2-(6-Chloro-benzothiazol-2-ylamino)-1-methyl-1H-benzoimidazole-5-carboxylic acid (2-piperazin-1-yl-ethyl)-amide hydrochloride] | – | 10.6 |
| Cn1c(Nc2nc3ccc(Cl)cc3s2)nc2cc(C(=O)NCCN3CCOCC3)ccc21 [Example 340, 2-(6-Chloro-benzothiazol-2-ylamino)-1-methyl-1H-benzoimidazole-5-carboxylic acid (2-morpholin-4-yl-ethyl)-amide] | – | 14.4 |
| Cn1c(Nc2nc3ccc(C(F)(F)F)cc3s2)nc2cc(C(=O)NCCN3CCOCC3)ccc21 [Example 341, 1-Methyl-2-(6-trifluoromethyl-benzothiazol-2-ylamino)-1H-benzoimidazole-5-carboxylic acid (2-morpholin-4-yl-ethyl)-amide] | – | 32.8 |
| Cn1c(Nc2nc3ccc(OC(F)(F)F)cc3s2)nc2cc(C(=O)NCCN3CCS(=O)(=O)CC3)ccc21 [Example 342, 1-Methyl-2-(6-trifluoromethoxy-benzothiazol-2-ylamino)-1H-benzoimidazole-5-carboxylic acid [2-(1,1-dioxo-thiomorpholin-4-yl)-ethyl]-amide] | – | 36.8 |
| Cn1c(Nc2nc3ccc(Cl)cc3s2)nc2cc(C(=O)NCCN)ccc21 [Example 343, 2-(6-Chloro-benzothiazol-2-ylamino)-1-methyl-1H-benzoimidazole-5-carboxylic acid (2-amino-ethyl)-amide hydrochloride] | 21.1 | – |
| Cn1c(Nc2nc3ccc(OC(F)(F)F)cc3s2)nc2cc(C(=O)NCCCN)ccc21 [Example 344, 1-Methyl-2-(6-trifluoromethoxy-benzothiazol-2-ylamino)-1H-benzoimidazole-5-carboxylic acid (3-amino-propyl)-amide hydrochloride] | – | 25.7 |
| Cn1c(Nc2nc3ccc(Cl)cc3s2)nc2cc(C(=O)NCCCN)ccc21 [Example 345, 2-(6-Chloro-benzothiazol-2-ylamino)-1-methyl-1H-benzoimidazole-5-carboxylic acid (3-amino-propyl)-amide hydrochloride] | – | 26.4 |
| Cn1c(Nc2nc3ccc(OC(F)(F)F)cc3s2)nc2cc(C(=O)NCCCCN)ccc21 [Example 346, 1-Methyl-2-(6-trifluoromethoxy-benzothiazol-2-ylamino)-1H-benzoimidazole-5-carboxylic acid (4-amino-butyl)-amide hydrochloride] | – | 12.9 |
| Cn1c(Nc2nc3ccc(Cl)cc3s2)nc2cc(C(=O)NCCCCN)ccc21 [Example 347, 2-(6-Chloro-benzothiazol-2-ylamino)-1-methyl-1H-benzoimidazole-5-carboxylic acid (4-amino-butyl)-amide hydrochloride] | – | 15.3 |
| CN(C)CCCNC(=O)c1ccc2c(c1)nc(Nc1nc3ccc(OC(F)(F)F)cc3s1)n2C [Example 348, 1-Methyl-2-(6-trifluoromethoxy-benzothiazol-2-ylamino)-1H-benzoimidazole-5-carboxylic acid (3-dimethylamino-propyl)-amide] | – | 22 |
| CN(C)CCCNC(=O)c1ccc2c(c1)nc(Nc1nc3ccc(Cl)cc3s1)n2C [Example 349, 2-(6-Chloro-benzothiazol-2-ylamino)-1-methyl-1H-benzoimidazole-5-carboxylic acid (3-dimethylamino-propyl)-amide] | – | 29 |
| CN(C)CCCNC(=O)c1ccc2c(c1)nc(Nc1nc3ccc(C(F)(F)F)cc3s1)n2C [Example 350, 1-Methyl-2-(6-trifluoromethyl-benzothiazol-2-ylamino)-1H-benzoimidazole-5-carboxylic acid (3-dimethylamino-propyl)-amide] | – | 24 |
| CCN(CC)CCCNC(=O)c1ccc2c(c1)nc(Nc1nc3ccc(OC(F)(F)F)cc3s1)n2C [Example 351, 1-Methyl-2-(6-trifluoromethoxy-benzothiazol-2-ylamino)-1H-benzoimidazole-5-carboxylic acid (3-diethylamino-propyl)-amide] | – | 25 |
| CCN(CC)CCCNC(=O)c1ccc2c(c1)nc(Nc1nc3ccc(Cl)cc3s1)n2C [Example 352, 2-(6-Chloro-benzothiazol-2-ylamino)-1-methyl-1H-benzoimidazole-5-carboxylic acid (3-diethylamino-propyl)-amide] | – | 20 |
| CCN(CC)CCCNC(=O)c1ccc2c(c1)nc(Nc1nc3ccc(C(F)(F)F)cc3s1)n2C [Example 353, 1-Methyl-2-(6-trifluoromethyl-benzothiazol-2-ylamino)-1H-benzoimidazole-5-carboxylic acid (3-diethylamino-propyl)-amide] | – | 23 |
| Cn1c(Nc2nc3ccc(Cl)cc3s2)nc2cc(C(=O)NCCCN3CCCC3)ccc21 [Example 354, 2-(6-Chloro-benzothiazol-2-ylamino)-1-methyl-1H-benzoimidazole-5-carboxylic acid (3-pyrrolidin-1-yl-propyl)-amide] | – | 17 |
| CN1CCN(CCCNC(=O)c2ccc3c(c2)nc(Nc2nc4ccc(OC(F)(F)F)cc4s2)n3C)CC1 [Example 355, 1-Methyl-2-(6-trifluoromethoxy-benzothiazol-2-ylamino)-1H-benzoimidazole-5-carboxylic acid [3-(4-methyl-piperazin-1-yl)-propyl]-amide] | – | 26 |
